Measurements reported in ChEMBL document CHEMBL1201862, “PubChem BioAssay data set” (2004).
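Values below derive from 48-hour exposures of cells grown in 96-well plates, with endpoints linearly interpolated between the two concentrations bracketing the appropriate inhibition level. GI50 is the concentration that inhibits growth by half.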 Active and inactive are the calls of the source. No stated cut-off is given here; in the data, active = GI50 up to about 1.1 µM and inactive = higher.

Tests used:
Experiment in all cases: NCI anticancer screen, dose series, 48 h
786-0 = tested on: 786-0
A549 = tested on: A549
CAKI-1 = tested on: CAKI-1
HL-60 = tested on: HL-60
K562 = tested on: K562
KM12 = tested on: KM12
M14 = tested on: M14
MOLT-4 = tested on: MOLT-4
RXF 393 = tested on: RXF 393
SF-268 = tested on: SF-268
SF-539 = tested on: SF-539
SK-MEL-2 = tested on: SK-MEL-2
SN12C = tested on: SN12C
SW-620 = tested on: SW-620
U-251 = tested on: U-251
UO-31 = tested on: UO-31
NCI-H460 = tested on: NCI-H460

Measured: GI50

COC(=O)C1(C)NCCc2c1[nH]c1ccccc21 (configuration not stated)
inactive: 786-0 > 100 µM | A549 > 100 µM | CAKI-1 > 100 µM | HL-60 > 10 µM | K562 > 100 µM | KM12 > 100 µM | M14 > 100 µM | MOLT-4 > 100 µM | RXF 393 > 100 µM | SF-268 > 100 µM | SF-539 > 100 µM | SK-MEL-2 > 100 µM | SN12C > 100 µM | SW-620 > 100 µM | U-251 > 100 µM | UO-31 > 100 µM

C=C1CCC(OC(C)=O)C2(C)C(OC(C)=O)CC3OC3(C)C2C(OC(C)=O)C2C(C)C(=O)OC2C1Cl (configuration not stated)
inactive: 786-0 > 100 µM | A549 > 100 µM | CAKI-1 > 100 µM | HL-60 > 100 µM | K562 > 100 µM | KM12 > 100 µM | M14 > 100 µM | MOLT-4 > 100 µM | NCI-H460 > 100 µM | RXF 393 > 100 µM | SF-268 > 100 µM | SF-539 > 100 µM | SK-MEL-2 > 100 µM | SN12C > 100 µM | SW-620 > 100 µM | U-251 > 100 µM | UO-31 > 100 µM

Cc1nc2ccccn2c1/N=N/c1ccc(C(=O)NN)cc1
inactive: 786-0 53.8 µM | A549 24.9 µM | CAKI-1 22.2 µM | HL-60 9.31 µM | K562 49.8 µM | M14 > 100 µM | MOLT-4 5.02 µM | RXF 393 9.82 µM | SF-268 19.4 µM | SF-539 77.3 µM | SN12C 27.7 µM | SW-620 49.3 µM | U-251 61.7 µM | UO-31 36.9 µM

C[S+]=c1sc2ccccc2s1
inactive: 786-0 > 100 µM | A549 > 100 µM | CAKI-1 > 100 µM | HL-60 > 100 µM | K562 > 100 µM | KM12 > 100 µM | M14 > 100 µM | MOLT-4 > 100 µM | NCI-H460 > 100 µM | RXF 393 > 100 µM | SF-268 > 100 µM | SF-539 > 100 µM | SK-MEL-2 > 100 µM | SN12C > 100 µM | SW-620 > 100 µM | U-251 > 100 µM | UO-31 > 100 µM

CN(C)C(=N)c1ccccc1
inactive: 786-0 > 100 µM | A549 > 100 µM | CAKI-1 > 100 µM | HL-60 > 100 µM | KM12 > 100 µM | M14 > 100 µM | NCI-H460 > 100 µM | RXF 393 > 100 µM | SF-539 > 100 µM | SK-MEL-2 > 100 µM | SN12C > 100 µM | SW-620 > 100 µM | U-251 > 100 µM | UO-31 > 100 µM

COc1ccc(C(=O)C(C(=O)CC(=O)Nc2cccc(C(F)(F)F)c2)c2ccc(OC)cc2)cc1 (configuration not stated)
inactive: 786-0 > 100 µM | A549 > 100 µM | CAKI-1 > 100 µM | HL-60 > 100 µM | K562 > 100 µM | KM12 > 100 µM | M14 > 100 µM | MOLT-4 > 100 µM | NCI-H460 > 100 µM | RXF 393 78.9 µM | SF-268 > 100 µM | SF-539 > 100 µM | SK-MEL-2 > 100 µM | SN12C > 100 µM | SW-620 > 100 µM | U-251 > 100 µM | UO-31 > 100 µM

COC(=O)CCC(NC(=S)N/N=C(\C)c1cnccn1)C(=O)OC (configuration not stated)
inactive: 786-0 58.6 µM | A549 58.7 µM | HL-60 14.8 µM | K562 22.9 µM | KM12 70.6 µM | M14 42.4 µM | MOLT-4 15.7 µM | NCI-H460 53 µM | RXF 393 > 100 µM | SF-268 35.4 µM | SF-539 62.5 µM | SK-MEL-2 68.1 µM | SN12C 86.7 µM | SW-620 49.3 µM | U-251 52.4 µM | UO-31 49.1 µM

N#CC(C#N)=c1ccc(=C2N3CCCC3CN2C23CC4CC(CC(C4)C2)C3)cc1 (configuration not stated)
inactive: 786-0 > 100 µM | A549 > 100 µM | HL-60 > 100 µM | K562 > 100 µM | KM12 > 100 µM | M14 > 100 µM | MOLT-4 > 100 µM | NCI-H460 > 100 µM | RXF 393 > 100 µM | SF-268 55.8 µM | SF-539 > 100 µM | SK-MEL-2 > 100 µM | SN12C > 100 µM | SW-620 > 100 µM | U-251 > 100 µM | UO-31 > 100 µM

Cc1ccc(S(=O)(=O)N/N=C2\C(=O)C3CC2C(Cl)C3Cl)cc1 (configuration not stated)
inactive: 786-0 > 100 µM | A549 > 100 µM | CAKI-1 > 100 µM | HL-60 > 100 µM | K562 > 100 µM | M14 > 100 µM | MOLT-4 > 100 µM | NCI-H460 > 100 µM | SF-268 > 100 µM | SN12C > 100 µM | SW-620 > 100 µM | U-251 > 100 µM | UO-31 > 100 µM

C[n+]1c2ccccc2c(CNC(CS)C(=O)O)c2ccccc21 (configuration not stated)
inactive: 786-0 31.8 µM | A549 30.3 µM | CAKI-1 29.6 µM | HL-60 17.3 µM | K562 31.8 µM | KM12 19.7 µM | M14 38.9 µM | MOLT-4 12.4 µM | NCI-H460 21.8 µM | RXF 393 24.1 µM | SF-268 20.4 µM | SF-539 18.4 µM | SK-MEL-2 26.8 µM | SN12C 30.5 µM | SW-620 32.4 µM | U-251 24.2 µM | UO-31 18 µM

Nc1cccc(C(=O)/C=C/c2ccccc2O)c1
inactive: 786-0 33.1 µM | A549 > 100 µM | CAKI-1 > 100 µM | HL-60 20.7 µM | K562 32.9 µM | KM12 > 100 µM | M14 > 100 µM | MOLT-4 > 100 µM | NCI-H460 > 100 µM | RXF 393 85.5 µM | SF-268 > 100 µM | SF-539 > 100 µM | SK-MEL-2 > 100 µM | SN12C > 100 µM | SW-620 12.2 µM | U-251 98.6 µM | UO-31 > 100 µM

[C-]#[N+][C@@H]1C2[C@H](CC[C@@]1(C)O)C(=C)CC[C@@H]2[C@@]1(C)CC[C@H](Cl)C(C)(C)O1 (some centres not stated)
inactive: 786-0 10.3 µM | A549 8.02 µM | CAKI-1 4.82 µM | HL-60 1.92 µM | K562 3.24 µM | KM12 3.53 µM | M14 2.81 µM | NCI-H460 8.3 µM | RXF 393 14 µM | SF-268 11 µM | SF-539 6.67 µM | SK-MEL-2 6.3 µM | SN12C 4.38 µM | SW-620 5.64 µM | U-251 8.87 µM | UO-31 2.06 µM

CCC12C=C(C(=O)OC)N3c4ccccc4C4CCN(CCC1)C2C43 (configuration not stated)
inactive: 786-0 21.3 µM | A549 > 100 µM | CAKI-1 35.6 µM | HL-60 78.9 µM | K562 37.7 µM | KM12 48.3 µM | M14 33.4 µM | MOLT-4 66.8 µM | RXF 393 53.2 µM | SF-268 > 100 µM | SF-539 > 100 µM | SK-MEL-2 > 100 µM | SN12C 83.8 µM | SW-620 59.7 µM | U-251 82.4 µM | UO-31 77.3 µM

C#CC1(O)CCC2C3CCc4cc(Oc5nc(F)nc(-c6c7ccccc7c7n6CCS7)n5)ccc4C3CC[C@@]21C (some centres not stated)
inactive: 786-0 34.1 µM | A549 33.6 µM | CAKI-1 28.8 µM | HL-60 19.8 µM | K562 21.3 µM | KM12 15.1 µM | M14 17.5 µM | MOLT-4 26.9 µM | NCI-H460 35.4 µM | SF-268 29 µM | SF-539 15.7 µM | SK-MEL-2 5.62 µM | SW-620 32.6 µM | U-251 17.5 µM | UO-31 28.6 µM

NC(=O)C(=O)Cc1nc2ccccc2s1
inactive: 786-0 > 100 µM | A549 > 100 µM | HL-60 > 100 µM | K562 > 100 µM | KM12 > 100 µM | M14 > 100 µM | MOLT-4 > 100 µM | NCI-H460 > 100 µM | RXF 393 > 100 µM | SF-268 > 100 µM | SF-539 > 100 µM | SK-MEL-2 > 100 µM | SN12C > 100 µM | SW-620 > 100 µM | U-251 > 100 µM | UO-31 > 100 µM

CC1=N/C(=C\c2cccc3ccccc23)C(=O)O1
inactive: 786-0 > 100 µM | A549 > 100 µM | HL-60 > 100 µM | K562 > 100 µM | KM12 > 100 µM | M14 > 100 µM | MOLT-4 > 100 µM | NCI-H460 > 100 µM | RXF 393 > 100 µM | SF-268 > 100 µM | SF-539 > 100 µM | SK-MEL-2 > 100 µM | SN12C > 100 µM | SW-620 > 100 µM | U-251 > 100 µM | UO-31 > 100 µM

O=C(CC1Sc2ccccc2NC1=O)Nc1ccc([N+](=O)[O-])cc1[N+](=O)[O-] (configuration not stated)
inactive: 786-0 17.9 µM | A549 26.5 µM | HL-60 17.8 µM | KM12 21.7 µM | M14 16 µM | MOLT-4 20.1 µM | NCI-H460 23.7 µM | RXF 393 12.9 µM | SF-268 16.6 µM | SK-MEL-2 19.5 µM | SN12C 16.1 µM | SW-620 18.4 µM | U-251 16 µM | UO-31 12 µM
